According to patent publication US9695155B2, “Herbicidal substituted pyrimidinyloxy benzene compounds” (E. I. DU PONT DE NEMOURS AND COMPANY, priority 2013, dated 2017):

What was measured:
[1] = test system: canarygrass; assay: Test D preemergence; type: in vivo, Phalaris minor; conditions: Phalaris minor, pre-emergence; for pest or weed control at 16 g/ha: 16 g ai/ha, scale 0 (no effect) to 100 (complete control), read-out: Plant response rating, Canarygrass; for pest or weed control at 31 g/ha: 31 g ai/ha; for pest or weed control at 31 g/ha / pest or weed control at 62 g/ha / pest or weed control at 125 g/ha: scale 0-100, read-out: Plant response rating, Canarygrass; for pest or weed control at 62 g/ha: 62 g ai/ha; for pest or weed control at 125 g/ha: 125 g ai/ha
Method in brief: (§1)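 Plant response is a visual score from 0 (no effect) to 100 (complete control) relative to controls. Plants were kept in a controlled growth environment for 7 to 21 days after spraying. Preemergence treatments went onto silt loam soil; postemergence ones onto 1- to 4-leaf seedlings.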

[2] = test system: galium; assay: Test D preemergence; type: in vivo, Galium aparine; conditions: Galium, pre-emergence; for pest or weed control at 16 g/ha: 16 g ai/ha, scale 0 (no effect) to 100 (complete control), read-out: Plant response rating, Galium; for pest or weed control at 31 g/ha: 31 g ai/ha; for pest or weed control at 31 g/ha / pest or weed control at 62 g/ha / pest or weed control at 125 g/ha: scale 0-100, read-out: Plant response rating, Galium; for pest or weed control at 62 g/ha: 62 g ai/ha; for pest or weed control at 125 g/ha: 125 g ai/ha
Method in brief: as §1

[3] = test system: bromegrass, downy; assay: Test D preemergence; type: in vivo, Bromus tectorum; conditions: Bromus tectorum, pre-emergence; for pest or weed control at 16 g/ha: 16 g ai/ha, scale 0 (no effect) to 100 (complete control), read-out: Plant response rating, Bromegrass, Downy; for pest or weed control at 31 g/ha: 31 g ai/ha; for pest or weed control at 31 g/ha / pest or weed control at 62 g/ha / pest or weed control at 125 g/ha: scale 0-100, read-out: Plant response rating, Bromegrass, Downy; for pest or weed control at 62 g/ha: 62 g ai/ha; for pest or weed control at 125 g/ha: 125 g ai/ha
Method in brief: as §1

[4] = test system: lambsquarters; assay: Test D preemergence; type: in vivo, Chenopodium album; conditions: Chenopodium album, pre-emergence; for pest or weed control at 16 g/ha: 16 g ai/ha, scale 0 (no effect) to 100 (complete control), read-out: Plant response rating, Lambsquarters; for pest or weed control at 31 g/ha: 31 g ai/ha; for pest or weed control at 31 g/ha / pest or weed control at 62 g/ha / pest or weed control at 125 g/ha: scale 0-100, read-out: Plant response rating, Lambsquarters; for pest or weed control at 62 g/ha: 62 g ai/ha; for pest or weed control at 125 g/ha: 125 g ai/ha
Method in brief: as §1

[5] = test system: wild mustard; assay: Test D preemergence; type: in vivo, Sinapis arvensis; conditions: Brassica, pre-emergence; for pest or weed control at 16 g/ha: 16 g ai/ha, scale 0 (no effect) to 100 (complete control), read-out: Plant response rating, Mustard, Wild; for pest or weed control at 31 g/ha: 31 g ai/ha; for pest or weed control at 31 g/ha / pest or weed control at 62 g/ha / pest or weed control at 125 g/ha: scale 0-100, read-out: Plant response rating, Mustard, Wild; for pest or weed control at 62 g/ha: 62 g ai/ha; for pest or weed control at 125 g/ha: 125 g ai/ha
Method in brief: as §1

[6] = test system: windgrass; assay: Test D preemergence; type: in vivo, Apera spica-venti; conditions: Apera spica-venti, pre-emergence; for pest or weed control at 16 g/ha: 16 g ai/ha; for pest or weed control at 16 g/ha / pest or weed control at 31 g/ha: scale 0 (no effect) to 100 (complete control), read-out: Plant response rating, Windgrass; for pest or weed control at 31 g/ha: 31 g ai/ha; for pest or weed control at 62 g/ha: 62 g ai/ha; for pest or weed control at 62 g/ha / pest or weed control at 125 g/ha: scale 0-100, read-out: Plant response rating, Windgrass; for pest or weed control at 125 g/ha: 125 g ai/ha
Method in brief: as §1

[7] = test system: kochia; assay: Test D postemergence; type: in vivo, Kochia scoparia; conditions: Bassia scoparia, post-emergence; for pest or weed control at 16 g/ha: 16 g ai/ha, scale 0-100, read-out: Plant response rating, Kochia; for pest or weed control at 31 g/ha: 31 g ai/ha; for pest or weed control at 31 g/ha / pest or weed control at 62 g/ha / pest or weed control at 125 g/ha: scale 0 to 100 (0 no effect, 100 complete control), read-out: Plant response rating, Kochia; for pest or weed control at 62 g/ha: 62 g ai/ha; for pest or weed control at 125 g/ha: 125 g ai/ha
Method in brief: as §1

[8] = test system: speedwell; assay: Test D postemergence; type: in vivo, Veronica persica; conditions: Veronica persica, post-emergence; for pest or weed control at 16 g/ha: 16 g ai/ha, scale 0-100, read-out: Plant response rating, Speedwell; for pest or weed control at 31 g/ha: 31 g ai/ha; for pest or weed control at 31 g/ha / pest or weed control at 62 g/ha / pest or weed control at 125 g/ha: scale 0 to 100 (0 no effect, 100 complete control), read-out: Plant response rating, Speedwell; for pest or weed control at 62 g/ha: 62 g ai/ha; for pest or weed control at 125 g/ha: 125 g ai/ha
Method in brief: as §1

[9] = test system: spring wheat; assay: Test D postemergence; type: in vivo, Triticum aestivum; conditions: Triticum aestivum, post-emergence; for plant injury at 16 g/ha: 16 g ai/ha, scale 0-100, read-out: Plant response rating, Wheat, Spring; for plant injury at 31 g/ha: 31 g ai/ha; for plant injury at 31 g/ha / plant injury at 62 g/ha / plant injury at 125 g/ha: scale 0 to 100 (0 no effect, 100 complete control), read-out: Plant response rating, Wheat, Spring; for plant injury at 62 g/ha: 62 g ai/ha; for plant injury at 125 g/ha: 125 g ai/ha
Method in brief: as §1

[10] = test system: winter wheat; assay: Test D postemergence; type: in vivo, Triticum aestivum; conditions: Triticum aestivum, post-emergence; for plant injury at 16 g/ha: 16 g ai/ha, scale 0-100, read-out: Plant response rating, Wheat, Winter; for plant injury at 31 g/ha: 31 g ai/ha; for plant injury at 31 g/ha / plant injury at 62 g/ha / plant injury at 125 g/ha: scale 0 to 100 (0 no effect, 100 complete control), read-out: Plant response rating, Wheat, Winter; for plant injury at 62 g/ha: 62 g ai/ha; for plant injury at 125 g/ha: 125 g ai/ha
Method in brief: as §1

| Compound | pest or weed control at 16 g/ha [1] [%] | pest or weed control at 31 g/ha [1] [%] | pest or weed control at 62 g/ha [1] [%] | pest or weed control at 125 g/ha [1] [%] | pest or weed control at 16 g/ha [2] [%] | pest or weed control at 31 g/ha [2] [%] | pest or weed control at 62 g/ha [2] [%] | pest or weed control at 125 g/ha [2] [%] | pest or weed control at 16 g/ha [3] [%] | pest or weed control at 31 g/ha [3] [%] | pest or weed control at 62 g/ha [3] [%] | pest or weed control at 125 g/ha [3] [%] | pest or weed control at 16 g/ha [4] [%] | pest or weed control at 31 g/ha [4] [%] | pest or weed control at 62 g/ha [4] [%] | pest or weed control at 125 g/ha [4] [%] | pest or weed control at 16 g/ha [5] [%] | pest or weed control at 31 g/ha [5] [%] | pest or weed control at 62 g/ha [5] [%] | pest or weed control at 125 g/ha [5] [%] | also measured |
| --- | --- | --- | --- | --- | --- | --- | --- | --- | --- | --- | --- | --- | --- | --- | --- | --- | --- | --- | --- | --- | --- |
| FC(F)(F)c1cn(-c2ccccc2Oc2ncc(Cl)cn2)nn1 [Compound 166, 5-chloro-2-[2-[4-(trifluoromethyl)-1H-1,2,3-triazol-1-yl]phenoxy]pyrimidine] | 30 | 50 | 70 | 100 | 65 | 80 | 100 | 100 | 5 | 5 | 25 | 50 | 85 | 95 | 100 | 100 | 65 | 95 | 100 | 100 | pest or weed control at 16 g/ha [6]: 50%; pest or weed control at 31 g/ha [6]: 75%; pest or weed control at 62 g/ha [6]: 100%; pest or weed control at 125 g/ha [6]: 100%; pest or weed control at 16 g/ha [7]: 65%; pest or weed control at 31 g/ha [7]: 65%; pest or weed control at 62 g/ha [7]: 90%; pest or weed control at 125 g/ha [7]: 95%; pest or weed control at 16 g/ha [8]: 70%; pest or weed control at 31 g/ha [8]: 85%; pest or weed control at 62 g/ha [8]: 100%; pest or weed control at 125 g/ha [8]: 100%; plant injury at 16 g/ha [9]: 5%; plant injury at 31 g/ha [9]: 10%; plant injury at 62 g/ha [9]: 25%; plant injury at 125 g/ha [9]: 35%; plant injury at 16 g/ha [10]: 5%; plant injury at 31 g/ha [10]: 15%; plant injury at 62 g/ha [10]: 30%; plant injury at 125 g/ha [10]: 40% |
| FC(F)(F)COc1cnn(-c2ccccc2Oc2ncc(Cl)cn2)c1 [Compound 138, 5-chloro-2-[2-[4-(2,2,2-trifluoroethoxy)-1H-pyrazol-1-yl]phenoxy]pyrimidine] | 10 | 10 | 20 | 40 | 25 | 40 | 90 | 100 | 0 | 0 | 0 | 10 | 45 | 10 | 60 | 100 | 55 | 65 | 100 | 100 | pest or weed control at 16 g/ha [6]: 0%; pest or weed control at 31 g/ha [6]: 0%; pest or weed control at 62 g/ha [6]: 0%; pest or weed control at 125 g/ha [6]: 15%; pest or weed control at 16 g/ha [7]: 25%; pest or weed control at 31 g/ha [7]: 40%; pest or weed control at 62 g/ha [7]: 55%; pest or weed control at 125 g/ha [7]: 75%; pest or weed control at 16 g/ha [8]: 70%; pest or weed control at 31 g/ha [8]: 70%; pest or weed control at 62 g/ha [8]: 75%; pest or weed control at 125 g/ha [8]: 75%; plant injury at 16 g/ha [9]: 5%; plant injury at 31 g/ha [9]: 5%; plant injury at 62 g/ha [9]: 5%; plant injury at 125 g/ha [9]: 15%; plant injury at 16 g/ha [10]: 0%; plant injury at 31 g/ha [10]: 0%; plant injury at 62 g/ha [10]: 5%; plant injury at 125 g/ha [10]: 15% |
